The values that follow are results of earlier work, collected in patent publication US20200352901A1, “TETRAHYDROCANNABINOL MODULATORS” (priority 2017, published 2020).

Structures are written as SMILES. Like-named read-outs stand apart in the source and are kept apart here.

Series [1] addresses T1, CB1 (Homo sapiens, UniProt P21554). The following applies: read-out: Binding affinity to CB1.
Target sequence in this assay (P21554 whole entry): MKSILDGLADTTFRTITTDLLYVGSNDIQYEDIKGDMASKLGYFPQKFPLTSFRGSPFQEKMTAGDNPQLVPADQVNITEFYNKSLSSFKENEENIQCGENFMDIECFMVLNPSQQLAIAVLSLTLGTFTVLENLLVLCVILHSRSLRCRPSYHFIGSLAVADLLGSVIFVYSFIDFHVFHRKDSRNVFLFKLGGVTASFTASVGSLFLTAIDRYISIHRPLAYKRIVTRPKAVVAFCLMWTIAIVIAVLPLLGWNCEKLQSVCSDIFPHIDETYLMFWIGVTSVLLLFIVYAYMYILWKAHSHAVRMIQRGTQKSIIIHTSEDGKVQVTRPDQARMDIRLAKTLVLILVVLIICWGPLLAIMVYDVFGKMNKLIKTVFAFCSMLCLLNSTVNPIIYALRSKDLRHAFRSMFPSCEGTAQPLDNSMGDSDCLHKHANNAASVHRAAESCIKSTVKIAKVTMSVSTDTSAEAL
For series [2], the target named is T2, human CB2 receptor (Homo sapiens, UniProt P34972). As to conditions: cells expressing human CB2 receptor; radioligand binding; read-out: Binding affinity to CB2.
T2 sequence (P34972 whole entry): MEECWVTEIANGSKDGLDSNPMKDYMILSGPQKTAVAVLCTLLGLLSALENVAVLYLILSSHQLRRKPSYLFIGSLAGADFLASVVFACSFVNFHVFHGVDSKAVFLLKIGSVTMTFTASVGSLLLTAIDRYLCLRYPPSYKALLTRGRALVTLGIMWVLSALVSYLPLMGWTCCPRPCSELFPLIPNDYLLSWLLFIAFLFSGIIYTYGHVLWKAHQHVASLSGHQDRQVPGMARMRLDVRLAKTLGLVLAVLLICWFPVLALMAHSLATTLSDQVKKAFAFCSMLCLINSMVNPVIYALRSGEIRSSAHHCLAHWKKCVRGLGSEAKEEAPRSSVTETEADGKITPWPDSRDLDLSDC
Series [3] concerns the target T1, CB1.
Target sequence in this assay (P21554 whole entry, species assumed): as the sequence (P21554 whole entry) above
A further series deals with T3, UGT1A10 (Homo sapiens, UniProt Q9HAW8).
T3 sequence (Q9HAW8 26-530): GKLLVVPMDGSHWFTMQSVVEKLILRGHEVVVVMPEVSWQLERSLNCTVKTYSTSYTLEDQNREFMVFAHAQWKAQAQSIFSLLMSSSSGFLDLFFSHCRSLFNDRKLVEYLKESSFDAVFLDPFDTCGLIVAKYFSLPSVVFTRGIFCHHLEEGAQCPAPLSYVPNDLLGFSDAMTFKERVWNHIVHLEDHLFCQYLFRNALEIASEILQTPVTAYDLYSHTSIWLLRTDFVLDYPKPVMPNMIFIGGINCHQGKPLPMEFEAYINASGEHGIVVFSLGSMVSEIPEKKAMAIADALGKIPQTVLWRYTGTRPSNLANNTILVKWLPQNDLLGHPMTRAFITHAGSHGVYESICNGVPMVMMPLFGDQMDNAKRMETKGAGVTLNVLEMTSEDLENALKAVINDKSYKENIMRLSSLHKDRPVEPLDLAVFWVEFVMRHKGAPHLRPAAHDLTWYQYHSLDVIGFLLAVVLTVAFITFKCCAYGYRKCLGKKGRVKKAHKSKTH
As to conditions: extrahepatic isoform UGT1A10.

Series [4] deals with T1, CB1. The source holds these as a separate data set.
Target sequence in this assay (P21554 whole entry): as the sequence (P21554 whole entry) above
The target of series [5] is T2, human CB2 receptor.
The target in a further series is T4, CYP1A2 (Homo sapiens, UniProt P05177).
T4 sequence (P05177 1-516): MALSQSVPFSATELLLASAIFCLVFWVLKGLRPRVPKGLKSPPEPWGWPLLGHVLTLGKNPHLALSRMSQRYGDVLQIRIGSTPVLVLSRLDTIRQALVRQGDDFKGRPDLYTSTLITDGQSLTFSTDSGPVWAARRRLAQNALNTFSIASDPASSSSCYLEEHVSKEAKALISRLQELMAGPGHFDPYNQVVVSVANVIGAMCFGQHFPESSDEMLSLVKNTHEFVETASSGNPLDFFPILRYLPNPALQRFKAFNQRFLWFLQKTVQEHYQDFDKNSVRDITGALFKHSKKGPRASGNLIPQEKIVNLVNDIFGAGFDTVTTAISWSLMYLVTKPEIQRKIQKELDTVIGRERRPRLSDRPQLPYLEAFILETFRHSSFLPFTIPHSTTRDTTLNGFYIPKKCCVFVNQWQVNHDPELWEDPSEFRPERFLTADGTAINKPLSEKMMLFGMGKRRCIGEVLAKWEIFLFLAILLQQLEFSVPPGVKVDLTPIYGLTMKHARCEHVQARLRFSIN
As to conditions: read-out: IC(50) for CYP1A2 inhibition.

In series [6] the target is T5, CYP2C9 (Homo sapiens, UniProt P11712). As to conditions: read-out: IC(50) for CYP2C9 inhibition.
T5 sequence (P11712 whole entry): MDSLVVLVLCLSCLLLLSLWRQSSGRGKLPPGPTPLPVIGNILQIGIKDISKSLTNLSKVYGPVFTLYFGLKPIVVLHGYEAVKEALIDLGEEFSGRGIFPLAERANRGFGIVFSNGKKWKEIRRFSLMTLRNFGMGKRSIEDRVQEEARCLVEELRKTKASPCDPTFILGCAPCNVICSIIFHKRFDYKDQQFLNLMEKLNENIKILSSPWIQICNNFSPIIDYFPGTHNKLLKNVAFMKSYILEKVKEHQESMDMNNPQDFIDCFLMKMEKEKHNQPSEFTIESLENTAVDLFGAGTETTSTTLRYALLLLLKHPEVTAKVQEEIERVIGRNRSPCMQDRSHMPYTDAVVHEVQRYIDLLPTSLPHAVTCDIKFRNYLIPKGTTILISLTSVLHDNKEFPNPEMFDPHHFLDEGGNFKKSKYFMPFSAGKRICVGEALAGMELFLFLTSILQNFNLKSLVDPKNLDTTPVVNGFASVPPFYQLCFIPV
In series [7] the target is T6, CYP3A4 (Homo sapiens, UniProt P08684). The following applies: read-out: IC(50) for CYP3A4 inhibition.
T6 sequence (P08684 whole entry): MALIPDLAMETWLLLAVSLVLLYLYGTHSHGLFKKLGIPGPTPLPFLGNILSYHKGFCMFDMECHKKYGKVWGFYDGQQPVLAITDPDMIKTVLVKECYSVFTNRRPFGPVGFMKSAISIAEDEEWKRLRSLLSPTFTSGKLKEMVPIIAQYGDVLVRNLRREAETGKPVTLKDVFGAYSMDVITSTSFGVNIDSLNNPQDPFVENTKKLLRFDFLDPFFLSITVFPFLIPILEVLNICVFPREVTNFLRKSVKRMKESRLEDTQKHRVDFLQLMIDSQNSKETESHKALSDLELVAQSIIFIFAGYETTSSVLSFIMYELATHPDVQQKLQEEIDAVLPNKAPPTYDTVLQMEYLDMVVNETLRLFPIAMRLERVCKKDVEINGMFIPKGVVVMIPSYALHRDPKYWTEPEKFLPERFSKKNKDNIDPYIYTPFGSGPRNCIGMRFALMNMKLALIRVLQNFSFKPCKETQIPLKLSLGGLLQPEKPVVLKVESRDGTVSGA
The target in another series is T7, CYP2C8 (Homo sapiens, UniProt P10632).
T7 sequence (P10632 1-490): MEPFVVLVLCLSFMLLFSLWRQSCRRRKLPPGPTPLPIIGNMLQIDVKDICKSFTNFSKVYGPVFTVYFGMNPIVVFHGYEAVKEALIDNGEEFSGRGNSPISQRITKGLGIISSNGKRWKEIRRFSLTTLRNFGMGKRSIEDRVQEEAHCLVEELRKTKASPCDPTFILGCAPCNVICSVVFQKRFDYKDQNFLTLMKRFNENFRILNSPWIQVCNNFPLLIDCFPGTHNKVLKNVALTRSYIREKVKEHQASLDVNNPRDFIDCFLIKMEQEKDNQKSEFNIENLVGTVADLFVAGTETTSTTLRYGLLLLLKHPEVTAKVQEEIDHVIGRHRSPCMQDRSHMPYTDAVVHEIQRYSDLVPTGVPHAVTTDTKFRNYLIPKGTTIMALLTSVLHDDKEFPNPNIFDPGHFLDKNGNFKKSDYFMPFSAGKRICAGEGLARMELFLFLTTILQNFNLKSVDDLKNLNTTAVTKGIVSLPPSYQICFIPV
The following applies: standard substrate of CYP2C8.

The target in a further series is CYP2B6 (Homo sapiens, UniProt P20813). The following applies: standard substrate of CYP2B6.
CYP2B6, sequence (P20813 whole entry): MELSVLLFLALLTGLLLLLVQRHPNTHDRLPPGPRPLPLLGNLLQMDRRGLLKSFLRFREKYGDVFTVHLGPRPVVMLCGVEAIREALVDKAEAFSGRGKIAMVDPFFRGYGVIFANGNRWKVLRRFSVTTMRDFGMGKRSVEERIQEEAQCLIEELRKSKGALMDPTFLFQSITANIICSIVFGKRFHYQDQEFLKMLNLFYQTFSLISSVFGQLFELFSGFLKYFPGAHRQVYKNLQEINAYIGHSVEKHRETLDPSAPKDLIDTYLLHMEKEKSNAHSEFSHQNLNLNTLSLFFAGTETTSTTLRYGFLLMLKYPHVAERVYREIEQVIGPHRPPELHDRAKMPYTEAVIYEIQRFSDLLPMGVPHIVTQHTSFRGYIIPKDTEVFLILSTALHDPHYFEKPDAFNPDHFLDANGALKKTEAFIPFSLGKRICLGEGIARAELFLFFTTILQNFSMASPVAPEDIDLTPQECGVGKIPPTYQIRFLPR
The target in another series is T8, UGT1A9 (Homo sapiens, UniProt O60656).
T8 sequence (O60656 26-530): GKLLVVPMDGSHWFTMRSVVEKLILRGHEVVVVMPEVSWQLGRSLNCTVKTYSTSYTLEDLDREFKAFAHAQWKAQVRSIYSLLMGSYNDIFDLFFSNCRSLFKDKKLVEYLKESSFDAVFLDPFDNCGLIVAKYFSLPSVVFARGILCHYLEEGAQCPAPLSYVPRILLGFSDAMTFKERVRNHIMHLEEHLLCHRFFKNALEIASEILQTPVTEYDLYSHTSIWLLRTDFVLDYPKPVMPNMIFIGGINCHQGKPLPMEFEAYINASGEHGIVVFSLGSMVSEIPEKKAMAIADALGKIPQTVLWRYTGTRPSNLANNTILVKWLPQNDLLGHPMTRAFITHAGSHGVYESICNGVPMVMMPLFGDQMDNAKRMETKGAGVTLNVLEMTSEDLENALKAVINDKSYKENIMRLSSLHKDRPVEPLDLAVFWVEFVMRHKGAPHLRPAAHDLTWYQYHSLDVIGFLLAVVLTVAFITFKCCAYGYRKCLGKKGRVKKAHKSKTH
The following applies: at 200 micromolar carvacrol; test substrate 4-methylumbelliferone.

In the next series the target is CYP2A6 (Homo sapiens, UniProt P11509). As to conditions: standard substrate of CYP2A6.
CYP2A6, sequence (P11509 whole entry): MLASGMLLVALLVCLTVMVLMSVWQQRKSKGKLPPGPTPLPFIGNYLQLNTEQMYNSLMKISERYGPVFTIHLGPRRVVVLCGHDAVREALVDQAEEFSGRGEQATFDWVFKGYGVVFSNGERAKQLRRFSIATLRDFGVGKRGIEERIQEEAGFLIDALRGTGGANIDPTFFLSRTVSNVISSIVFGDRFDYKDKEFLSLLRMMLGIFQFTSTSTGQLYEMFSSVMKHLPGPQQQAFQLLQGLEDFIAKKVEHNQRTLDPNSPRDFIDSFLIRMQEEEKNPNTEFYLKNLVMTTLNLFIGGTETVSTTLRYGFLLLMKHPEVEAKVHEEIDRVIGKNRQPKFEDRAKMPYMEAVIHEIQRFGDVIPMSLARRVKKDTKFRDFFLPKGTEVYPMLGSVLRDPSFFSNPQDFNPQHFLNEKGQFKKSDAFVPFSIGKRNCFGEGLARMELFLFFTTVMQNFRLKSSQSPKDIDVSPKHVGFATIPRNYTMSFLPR
Another series addresses CYP2D6 (Homo sapiens, UniProt P10635). As to conditions: standard substrate of CYP2D6.
Series [8] concerns the target T5, CYP2C9. The following applies: standard substrate of CYP2C9.
For series [9], the target named is T6, CYP3A4. The following applies: standard substrate of CYP3A4.

CYP2D6, sequence (P10635 whole entry): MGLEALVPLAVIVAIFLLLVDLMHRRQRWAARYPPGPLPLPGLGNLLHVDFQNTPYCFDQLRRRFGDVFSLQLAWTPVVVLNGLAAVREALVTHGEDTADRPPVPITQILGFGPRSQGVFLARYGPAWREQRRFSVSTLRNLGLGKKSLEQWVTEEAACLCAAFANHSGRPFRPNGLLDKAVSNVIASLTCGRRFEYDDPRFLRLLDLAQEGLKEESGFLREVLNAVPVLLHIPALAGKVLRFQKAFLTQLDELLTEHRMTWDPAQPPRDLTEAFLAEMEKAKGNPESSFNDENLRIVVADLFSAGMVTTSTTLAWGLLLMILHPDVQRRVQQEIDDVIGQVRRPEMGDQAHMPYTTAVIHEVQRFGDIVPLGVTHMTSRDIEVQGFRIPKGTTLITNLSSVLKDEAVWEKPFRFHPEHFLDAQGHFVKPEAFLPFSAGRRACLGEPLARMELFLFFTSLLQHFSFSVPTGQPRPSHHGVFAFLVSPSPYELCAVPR

As to `CCCCCc1cc(O)c2c(c1)OC(C)(C)C1CC(O)C(C)=CC21` (single isomer, unassigned) [Compound 1, 8-alpha-hydroxy-delta-9-THC], the Ki at CB1 [1] is 1910 nM; on human CB2 receptor [2], 3220 nM.

On to `CCCCCc1cc(O)c2c(c1)OC(C)(C)C1CC(O)C(C)=CC21` (single isomer, unassigned) [Compound 2, 8-beta-hydroxy-delta-9-THC], for which the Ki at CB1 [1] was 65 nM; on human CB2 receptor [2], 88 nM.

Turning to `C=C1CCC2C(c3c(O)cc(CCCCC)cc3OC2(C)C)C1O` (single isomer, unassigned) [Compound 4, 10-beta-hydroxy-delta-9,11-hexahydro-cannabinol], the Ki was 830 nM at CB1 [1] and 3270 nM at human CB2 receptor [2].

As to `C=C1CCC2C(c3c(O)cc(CCCCC)cc3OC2(C)C)C1O` (single isomer, unassigned) [Compound 5, 10-alpha-hydroxy-delta-9,11-hexahydro-cannabinol], the Ki at CB1 [1] is 117 nM; on human CB2 receptor [2], 129 nM.

For `CCCCCc1cc(O)c2c(c1)OC(C)(C)[C@@H]1CC=C(CO)C[C@@H]21` [11-hydroxy-delta-8-THC], the “Functional character at CB1” value on CB1 [3] was “agonists”.

With `CCCCCc1cc(O)c2c(c1)OC(C)(C)c1ccc(C)cc1-2` [CBN, cannabinol], the Km (in general, the substrate concentration at which the rate is half of its maximum) on UGT1A10 was 55 µM.

As to `CCCCCc1cc(O)c2c(c1)OC(C)(C)C1CC=C(C)C(O)C21` (stereo not drawn) [Compound 3, 10-alpha-hydroxy-delta-8-THC], the values for the Ki at CB1 [1] and at human CB2 receptor [2] were 31 nM and 30 nM, respectively. Further, the “Functional character at CB1” value on CB1 [4] is given as “partial agonist”. For the same compound, the “Functional character at CB2” value on human CB2 receptor [5] is listed as “partial agonist”.

For the compound `CC(C)=C1C[C@@H]2O[C@@]2(C)CC/C=C(\C)CC1=O` [Compound 7, (4S,5S)-(−)-germacrone-4,5-epoxide], the IC50 on CYP1A2 was 33.2 ± 3.6 µM; on CYP2C9 [6], 7.6 ± 2.5 µM; at CYP3A4 [7] it was 1 ± 0.2 µM.

As for `COc1cc(/C=C/C(=O)CC(=O)/C=C/c2ccc(O)c(OC)c2)ccc1O` [Compound 11, curcumin], the IC50 at CYP1A2 was greater than 100 µM.

For the compound `CCCCCc1cc(O)c2c(c1)OC(C)(C)[C@@H]1CCC(CO)=C[C@@H]21` [Compound 11-OH-THC, 11-hydroxy-delta-9-tetrahydrocannabinol], the Km at UGT1A10 is 16 µM. Also, the “Functional character at CB1” value on CB1 [3] is on record as “agonists”.

In the case of `COc1cc(/C=C/C(O)=C/C(=O)/C=C/c2ccc(O)cc2)ccc1O` [Compound 12, demethoxycurcumin], the IC50 at CYP1A2 is 34 ± 14.2 µM; at CYP2C9 [6] it was 1.4 ± 0.2 µM; at CYP3A4 [7], 7 ± 1.7 µM.

Turning to `CCN(CC)Cc1cc(Nc2ccnc3cc(Cl)ccc23)ccc1O` [amodiaquine], the Km on CYP2C8 was 900 nM.

Regarding `CC(NC(C)(C)C)C(=O)c1cccc(Cl)c1` (stereo not shown) [bupropion], the Km at CYP2B6 is 137 µM.

Take `Cc1ccc(C(C)C)cc1O` [carvacrol]: the “4-methylumbelliferone glucuronidation activity remaining” value at UGT1A9 is on record as 20 % maximal activity.

For the compound `O=c1ccc2ccccc2o1` [coumarin], the Km at CYP2A6 is 1000 nM.

In the case of `COc1ccc2c(c1)[C@]13CCCC[C@@H]1[C@H](C2)N(C)CC3` [dextromorphone], the Km at CYP2D6 is 5 µM.

In the case of `O=C(O)Cc1ccccc1Nc1c(Cl)cccc1Cl` [diclofenac], the Michaelis-Menten constant (Km) on CYP2C9 [8] was 3.5 µM.

With `Cc1ncc2n1-c1ccc(Cl)cc1C(c1ccccc1F)=NC2` [midazolam], at CYP3A4 [9], the Km was 1.8 µM.

As for `C[C@]12CC[C@H]3[C@@H](CCC4=CC(=O)CC[C@@]43C)[C@@H]1CC[C@@H]2O` [testosterone], the Michaelis constant (Km) on CYP3A4 [9] is 64 µM.
